Results from US11753373B2, “Protease inhibitors as antivirals” (priority 2021, dated 2023).
Like-named read-outs stand apart in the source and are kept apart here.

Legend:
SARS-CoV-2 = experiment: Anti-viral in vitro PRNT assay in Vero E6 cells; assay type: cell-based; conditions: for EC50: read-out: anti-SARS-CoV2 (PRNT) in Vero E6 EC50
[1] = assay type: in vitro ADME, Human; conditions: extraction ratio, compound at 1 uM, human liver microsomes 0.5 mg/mL
Description: (§1) Metabolic stability of novel protease inhibitors was determined via liver microsomal stability assay. Human, mouse, SD rat, beagle dog or monkey liver microsomes were incubated with the test compound for 5 to 60 minutes at 37° C., and then the remaining parent compound was quantified by LC-MS/MS. Percentage of the test compound remaining, half-life (t1/2), in vitro intrinsic clearance (CLint, in vitro), in vivo intrinsic clearance (CLint, in vivo), hepatic clearance (CLh) and extraction ratio (ER) were calculated.
(§2) Procedure: The assay was done as described in Baranczewski, P. et al. (2006) Pharmacological Reports 58:453-472; Pearson, P. and Wienkers, L. (2008) Handbook of Drug Metabolism, 2nd Edition. CRC Pres, P.478; and Venkatesh, P. et al. (2007) Biol. Pharm. Bull. 30:1021-2024. 0.625 mg/mL liver microsomes solution was prepared by mixing 2325 μL 100 mM of K-phosphate buffer (pH 7.4) containing 2.5 mM of MgCl2, 1.25 mM of EDTA, and 75 μL microsomes (20 mg/mL) in a vial for each species.
(§3) Positive control compound: (±) Verapamil hydrochloride (Cat No.: V4629; Lot No.: MKBV4993V; Source: Sigma)
(§4) 40 μL aliquots of the liver microsome/test compound mixture were dispensed into 96-well plate in triplicate and pre-warmed the mixture for 5 minutes at 37° C. Then, 10 μL of 5 mM NADPH solution was added to each well to initiate the reaction, and gently mixed. The samples were incubated at 37° C. with gentle shaking.
(§5) For 0-min samples, 200 μL of ACN containing internal standard was added to 40 μL of liver microsome/test compound mixture, followed by addition of 5 mM NADPH, and mixed gently.
(§6) For negative control: 40 μL of liver microsome/test compound mixture was incubated at 37° C. with gentle shaking for 60 minutes, followed by addition of 200 μL ACN containing 1% FA and internal standard and 10 μL of 5 mM NADPH, mixed gently.
(§7) All samples were centrifuged at 4° C. for 20 minutes at 4,000 rpm. Then, 100 μL of the supernatant from each sample was transferred to a new 96-well plate and 100 μL of ultrapure water containing 1% FA was added to each well, and mixed gently. Samples were analyzed by LC-MS/MS.
(§8) Data Analysis: Peak area ratio (Peak Area of test compound/Peak Area of internal standard) was used to represent the concentration of compound in each sample. The remaining percentage (% Remaining) at appointed time points was calculated versus the concentration of compound at 0 min. The Ln value of the remaining percentage was linearly fitted against the incubation time.
(§9) The half-life and clearance were calculated using the following equations:
(§10) Determined percent of the remaining test compound: % remaining=[area at tx/average areas at t0]×100 (1) % metabolized=[100−% remaining] (2)
(§11) Calculated the half-life (t1/2) using the slope (k) of the log-linear regression from the concentration of remaining parent compound versus time (min) relationship: t1/2 (min)=−ln 2/k. (3)
(§12) Clint, in vitro (mL/min/mg) Clint,in vitro=k/c,(c:Liver microsome concentration in the incubation system) (4)
(§13) Hepatic Clearance (CLh) CLh=Clint,in vivo*Hepatic Blood Flow (mL/min/kg)/(Hepatic Blood Flow (mL/min/kg)+Clint,in vivo) (6)
(§14) Extraction ratio (ER): ER=CLint,in vivo/(Qh+CLint,in vivo)*100,Qh:liver blood flow (7)

[2] = assay type: in vitro ADME; conditions: extraction ratio, compound at 1 uM; for Liver Microsomal Stability (ER) SD rat: SD rat liver microsomes 0.5 mg/mL; for Liver Microsomal Stability (ER) Beagle dog: beagle dog liver microsomes 0.5 mg/mL; for Liver Microsomal Stability (ER) Mouse: mouse liver microsomes 0.5 mg/mL
Description: as §1, §2, §3
as §4, with “shaking. (Final concentrations: compound=1 μM; liver microsomes protein=0.5 mg/mL; MgCl2=2 mM; EDTA=1 mM; ACN=0.1%; DMSO=0.05%).” for “shaking.”
as §5, §6, §7, §8, §9, §10, §11, §12, §13, §14

[3] = Vero E6 cells, 1000 pfu, 3 days, plaque reduction

Compound: COC(=O)[C@H](C[C@@H]1CCNC1=O)NC(=O)[C@H](CC(C)C)NC(=O)c1cc2ccccc2[nH]1 [Compound A-1-a, methyl (S)-2-((S)-2-(1H-indole-2-carboxamido)-4-methylpentanamido)-3-((S)-2-oxopyrrolidin-3-yl)propanoate]
- anti-SARS-CoV2 (PRNT) in Vero E6 EC50 (μM) (SARS-CoV-2; [3]): inactive

Compound: CC(C)C[C@H](NC(=O)c1cc2ccccc2[nH]1)C(=O)N[C@@H](C[C@@H]1CCNC1=O)C(=O)O [Compound A-1-e, (2S)-2-[(2S)-2-[(1H-indol-2-yl)formamido]-4-methylpentanamido]-3-[(3S)-2-oxopyrrolidin-3-yl]propanoic acid]
- Liver Microsomal Stability (ER) Human [1]: 0.00
- Liver Microsomal Stability (ER) SD rat [2]: −0.02
- Liver Microsomal Stability (ER) Beagle dog [2]: 0.02
- Liver Microsomal Stability (ER) Mouse [2]: 0.09

Compound: O=C[C@H](C[C@@H]1CCNC1=O)NC(=O)[C@H](CC1CCCCC1)NC(=O)c1cc2ccccc2[nH]1 [Compound A-2-c]
- EC50 (SARS-CoV-2): 0.64 µM

Compound: CC(C)C[C@@H](NC(=O)c1cc2c(F)cccc2[nH]1)C(=O)N[C@H](C#N)C[C@@H]1CCNC1=O [Compound A-3-b]
- Liver Microsomal Stability (ER) Human [1]: 0.18
- Liver Microsomal Stability (ER) SD rat [2]: 0.37
- Liver Microsomal Stability (ER) Beagle dog [2]: 0.06
- Liver Microsomal Stability (ER) Mouse [2]: 0.37

Compound: CC(C)C[C@H](NC(=O)c1cc2c(F)cccc2[nH]1)C(=O)N[C@H](C=O)C[C@@H]1CCNC1=O [Compound A-3-c]
- EC50 (SARS-CoV-2; [3]): 0.31 µM
- Liver Microsomal Stability (ER) Human [1]: 0.18
- Liver Microsomal Stability (ER) SD rat [2]: 0.14
- Liver Microsomal Stability (ER) Beagle dog [2]: −0.02
- Liver Microsomal Stability (ER) Mouse [2]: 0.14

Compound: COc1cccc2[nH]c(C(=O)N[C@@H](CC(C)C)C(=O)N[C@H](C=O)C[C@@H]3CCNC3=O)cc12 [Compound A-5-a]
- EC50 (SARS-CoV-2; [3]): 1.52 µM
- Liver Microsomal Stability (ER) Human [1]: 0.10
- Liver Microsomal Stability (ER) SD rat [2]: 0.11
- Liver Microsomal Stability (ER) Beagle dog [2]: 0.05
- Liver Microsomal Stability (ER) Mouse [2]: 0.19

Compound: COc1cccc2[nH]c(C(=O)N[C@@H](CC(C)C)C(=O)N[C@H](C#N)C[C@@H]3CCNC3=O)cc12 [Compound A-5-b]
- anti-SARS-CoV2 (PRNT) in Vero E6 EC50 (μM) (SARS-CoV-2; [3]): inactive
- Liver Microsomal Stability (ER) Human [1]: 0.08
- Liver Microsomal Stability (ER) SD rat [2]: 0.22
- Liver Microsomal Stability (ER) Beagle dog [2]: 0.12
- Liver Microsomal Stability (ER) Monkey ([2]; monkey liver microsomes 0.5 mg/mL): 0.47
- Liver Microsomal Stability (ER) Mouse [2]: 0.11

Compound: COc1cccc2[nH]c(C(=O)N[C@@H](CC(C)C)C(=O)N[C@@H](C[C@@H]3CCNC3=O)C(=O)CO)cc12 [Compound A-5-d]
- EC50 (SARS-CoV-2; [3]): 3.5 µM
- Liver Microsomal Stability (ER) Human [1]: 0.09
- Liver Microsomal Stability (ER) SD rat [2]: 0.11
- Liver Microsomal Stability (ER) Beagle dog [2]: 0.07
- Liver Microsomal Stability (ER) Mouse [2]: 0.38

Compound: COC(=O)[C@H](C[C@@H]1CCNC1=O)NC(=O)[C@H](CC(C)C)NC(=O)OCc1ccccc1 [Compound B-1-a, methyl (S)-2-((S)-2-(((benzyloxy)carbonyl)-amino)-4-methylpentanamido)-3-((S)-2-oxopyrrolidin-3-yl)propanoate]
- anti-SARS-CoV2 (PRNT) in Vero E6 EC50 (μM) (SARS-CoV-2; [3]): inactive

Compound: CC(C)C[C@H](NC(=O)OCc1ccccc1)C(=O)N[C@H](C=O)C[C@@H]1CCNC1=O [Compound B-1-b, benzyl ((S)-4-methyl-1-oxo-1-(((S)-1-oxo-3-((S)-2-oxopyrrolidin-3-yl)propan-2-yl)amino)pentan-2-yl)carbamate]
- EC50 (SARS-CoV-2; Severe acute respiratory syndrome coronavirus 2, Vero C1008, 72 h): 1.13 µM

Compound: CC(C)C[C@H](NC(=O)OCc1ccccc1)C(=O)N[C@@H](C[C@@H]1CCNC1=O)C(=O)CCl [Compound B-1-c]
- EC50 (SARS-CoV-2): 2.29 µM

Compound: C=CC(=O)[C@H](C[C@@H]1CCNC1=O)NC(=O)[C@H](CC(C)C)NC(=O)OCc1ccccc1 [Compound B-1-d]
- anti-SARS-CoV2 (PRNT) in Vero E6 EC50 (μM) (SARS-CoV-2): inactive

Compound: COC(=O)[C@H](C[C@@H]1CCNC1=O)NC(=O)[C@H](CC1CCCCC1)NC(=O)OCc1ccccc1 [Compound B-2-a, methyl (S)-2-((S)-2-(((benzyloxy)carbonyl)amino)-3-cyclohexylpropan-amido)-3-((S)-2-oxopyrrolidin-3-yl)propanoate]
- anti-SARS-CoV2 (PRNT) in Vero E6 EC50 (μM) (SARS-CoV-2; [3]): inactive

Compound: COC(=O)[C@H](C[C@@H]1CCNC1=O)NC(=O)[C@@H]1[C@@H]2[C@H](CN1C(=O)[C@@H](NC(=O)C(F)(F)F)C(C)(C)C)C2(C)C [Compound D-1-a, methyl (2S)-2-{[(1R,2S,5S)-3-[(2S)-3,3-dimethyl-2-(trifluoroacetamido)-butanoyl]-1,5-dihydrogenio-6,6-dimethyl-3-azabicyclo[3.1.0]hexan-2-yl]formamido}-3-[(3S)-2-oxopyrrolidin-3-yl]propanoate]
- anti-SARS-CoV2 (PRNT) in Vero E6 EC50 (μM) (SARS-CoV-2): inactive

Compound: CC(C)(C)[C@H](NC(=O)C(F)(F)F)C(=O)N[C@@H](CC1CCCCC1)C(=O)N[C@H](C#N)C[C@@H]1CCNC1=O [Compound D-4-a]
- Liver Microsomal Stability (ER) Human [1]: 0.46
- Liver Microsomal Stability (ER) SD rat [2]: 0.29
- Liver Microsomal Stability (ER) Beagle dog [2]: 0.21
- Liver Microsomal Stability (ER) Mouse [2]: 0.72

Compound: C[C@@H](C=O)NC(=O)[C@H](CC1CCCCC1)N(C(=O)OCc1ccccc1)C1CC1 [Compound E-1-b]
- anti-SARS-CoV2 (PRNT) in Vero E6 EC50 (μM) (SARS-CoV-2): inactive

Compound: COC(=O)[C@H](C)NC(=O)[C@@H]1[C@@H]2[C@H](CN1C(=O)[C@@H](NC(=O)C(F)(F)F)C(C)(C)C)C2(C)C [Compound F-1-a, methyl ((1R,2S,5S)-3-((S)-3,3-dimethyl-2-(2,2,2-trifluoroacetamido)butanoyl)-6,6-dimethyl-3-azabicyclo[3.1.0]hexane-2-carbonyl)-L-alaninate]
- anti-SARS-CoV2 (PRNT) in Vero E6 EC50 (μM) (SARS-CoV-2): inactive

Compound: C[C@@H](C#N)NC(=O)[C@@H]1[C@@H]2[C@H](CN1C(=O)[C@@H](NC(=O)C(F)(F)F)C(C)(C)C)C2(C)C [Compound F-1-c]
- anti-SARS-CoV2 (PRNT) in Vero E6 EC50 (μM) (SARS-CoV-2): inactive

Compound: C=CC(=O)N[C@H](C)NC(=O)[C@@H]1[C@@H]2[C@H](CN1C(=O)[C@@H](NC(=O)C(F)(F)F)C(C)(C)C)C2(C)C [Compound F-1-d]
- anti-SARS-CoV2 (PRNT) in Vero E6 EC50 (μM) (SARS-CoV-2): inactive

Compound: COC(=O)[C@@H](NC(=O)[C@@H]1[C@@H]2[C@H](CN1C(=O)[C@@H](NC(=O)C(F)(F)F)C(C)(C)C)C2(C)C)C(C)C [Compound F-2-a, methyl ((1R,2S,5S)-3-((S)-3,3-dimethyl-2-(2,2,2-trifluoroacetamido)-butanoyl)-6,6-dimethyl-3-azabicyclo[3.1.0]hexane-2-carbonyl)-L-valinate]
- anti-SARS-CoV2 (PRNT) in Vero E6 EC50 (μM) (SARS-CoV-2): inactive

Compound: CC(C)[C@@H](C#N)NC(=O)[C@@H]1[C@@H]2[C@H](CN1C(=O)[C@@H](NC(=O)C(F)(F)F)C(C)(C)C)C2(C)C [Compound F-2-c]
- anti-SARS-CoV2 (PRNT) in Vero E6 EC50 (μM) (SARS-CoV-2): inactive

Compound: C=CC(=O)N[C@@H](NC(=O)[C@@H]1[C@@H]2[C@H](CN1C(=O)[C@@H](NC(=O)C(F)(F)F)C(C)(C)C)C2(C)C)C(C)C [Compound F-2-d]
- anti-SARS-CoV2 (PRNT) in Vero E6 EC50 (μM) (SARS-CoV-2): inactive

Compound: C[C@@H](C#N)NC(=O)[C@@H]1[C@@H]2[C@H](CN1C(=O)[C@@H](NC(=O)C(F)(F)F)C1CC1)C2(C)C [Compound F-3-a]
- anti-SARS-CoV2 (PRNT) in Vero E6 EC50 (μM) (SARS-CoV-2): inactive

Compound: C=CC(=O)N[C@@H](NC(=O)[C@@H]1[C@@H]2[C@H](CN1C(=O)[C@@H](NC(=O)C(F)(F)F)C1CC1)C2(C)C)C(C)C [Compound F-4-b]
- anti-SARS-CoV2 (PRNT) in Vero E6 EC50 (μM) (SARS-CoV-2): inactive
